US20230049952A1, “METHODS AND COMPOUNDS FOR RESTORING MUTANT P53 FUNCTION” (PMV Pharmaceuticals, Inc., priority 2020, published 2023)
Read-outs that look alike come from different tables or passages of the source.

How the values were obtained:
[1] = test system: MT373 tumors; assay type: in vivo; settings: 75 and 150 mg/kg BID×1 PO
Text: Randomization and Study Setup: Implanted animals were monitored for palpable tumors. Eighteen days post implant the animals with palpable tumors had their tumor sizes determined via digital caliper. Mice were selected and randomized into three treatment groups according to tumor size. Average tumor volume (mm^3) and body weight (g) are described in TABLE 17. Treatment began on the eighteenth day post-implant to facilitate twice daily dosing.
Measurements and Calculation of Tumor Volume: Tumor volume was calculated using the following equation: (longest diameter×shortest diameter^2)/2. Individual tumor volumes and body weight measurements were taken at the final timepoint. The calculation for percent tumor growth inhibition (TGI) is as follows: [1−((Tt−T0/Ct−C0))]×100, where Ct is the mean tumor volume of the vehicle control group at time t, C0 is the mean tumor volume of the vehicle control group at time 0, and T is the mean tumor volume of the treatment group. Tumor regression was determined with the equation [(T0−Tt)/T0]×100 using the same definitions.

[2] = for Plasma Conc. / Tumor Conc.: MT373 tumor-bearing mice
[3] = test system: p53 target genes in MT373 tumors; test: MT373 syngeneic sarcoma model: p21, MDM2, GDF15 (MIC-1) mRNA RT-qPCR in tumors; assay type: in vivo, mouse; settings: for MDM2 mRNA, Fold Change over Vehicle Control / MIC-1 mRNA, Fold Change over Vehicle Control / p21 mRNA, Fold Change over Vehicle Control: MT373 tumors
Method: Purification of RNA: Frozen tumor samples with the required weight were lysed in Buffer RLT with 10 μL/mL of β-mercaptoethanol using a TissueLyser LT. Total RNA was further purified from the lysate using QIAcube with DNase digestion, and RNA concentration was measured with a NanoDrop 2000 Spectrophotometer.
p21, MDM2, GDF15, and GAPDH Gene Expression: Individual gene expression was analyzed by one-step TaqMan-based real-time RT-qPCR. Purified total RNA was diluted to 2.5 ng/μL in DNase- and RNase-free water, and 10 ng was used for each 20 μL RT-qPCR assay using a LightCycler 96. A QuantiTect Probe RT-PCR Kit was used along with a specific primer/probe set as indicated. LAM-MGB labels were used for genes GAPDH, CDKN1a, MDM2, GDL15, and TRP53. The expression of the reference gene (human GAPDH and/or mouse GAPDH as indicated) in the ratio to the vehicle control was calculated using the ΔCt method with normalization to the total RNA input. The expression of a gene of interest relative to the reference gene was calculated using the ΔCt method, and the expression of a gene of interest relative to the reference gene in the ratio to the vehicle control was calculated using the ΔΔCt method.

CCn1c(C#CCNc2ccccc2)cc2cc(CNC3CCN(C)CC3)ccc21 [Compound 1, 1-Anilino-3-{1-ethyl-5-[(1-methyl-4-piperidylamino)methyl]-1H-indol-2-yl}-2-propyne]
tolerability [1]: well tolerated
Plasma Conc. ([2]; 75 mg/kg BIDx1 PO, 8 h): 8375 ng/mL
Tumor Conc. ([2]; 75 mg/kg BIDx1 PO, 8 h): 30853 ng/g
Plasma Conc. ([2]; 75 mg/kg BIDx1 PO, 24 h): 1843 ng/mL
Tumor Conc. ([2]; 75 mg/kg BIDx1 PO, 24 h): 12035 ng/g
Plasma Conc. ([2]; 75 mg/kg BIDx1 PO, 48 h): 40 ng/mL
Tumor Conc. ([2]; 75 mg/kg BIDx1 PO, 48 h): 318 ng/g
Plasma Conc. ([2]; 75 mg/kg BIDx1 PO, 72 h): 0 ng/mL
Tumor Conc. ([2]; 75 mg/kg BIDx1 PO, 72 h): 97 ng/g
Plasma Conc. ([2]; 75 mg/kg BIDx1 PO, 98 h): 0 ng/mL
Tumor Conc. ([2]; 75 mg/kg BIDx1 PO, 98 h): 0 ng/g
plasma concentration ([2]; 75 mg/kg BID×1 PO, 8 h (Cmax)): 8375 ng/mL
plasma concentration ([2]; 75 mg/kg BID×1 PO, 24 h): 1843 ng/mL
Plasma Conc. ([2]; 150 mg/kg BIDx1 PO, 8 h): 11435 ng/mL
Tumor Conc. ([2]; 150 mg/kg BIDx1 PO, 8 h): 57645 ng/g
Plasma Conc. ([2]; 150 mg/kg BIDx1 PO, 24 h): 5986 ng/mL
Tumor Conc. ([2]; 150 mg/kg BIDx1 PO, 24 h): 67778 ng/g
Plasma Conc. ([2]; 150 mg/kg BIDx1 PO, 48 h): 268 ng/mL
Tumor Conc. ([2]; 150 mg/kg BIDx1 PO, 48 h): 2436 ng/g
Plasma Conc. ([2]; 150 mg/kg BIDx1 PO, 72 h): 7 ng/mL
Tumor Conc. ([2]; 150 mg/kg BIDx1 PO, 72 h): 59 ng/g
Plasma Conc. ([2]; 150 mg/kg BIDx1 PO, 98 h): 3 ng/mL
Tumor Conc. ([2]; 150 mg/kg BIDx1 PO, 98 h): 23 ng/g
plasma concentration ([2]; 150 mg/kg BID×1 PO, 8 h (Cmax)): 11435 ng/mL
plasma concentration ([2]; 150 mg/kg BID×1 PO, 24 h): 5986 ng/mL
MDM2 mRNA, Fold Change over Vehicle Control ([3]; 75 mg/kg BIDx1 PO, 8 h): 6.16 fold
MIC-1 mRNA, Fold Change over Vehicle Control ([3]; 75 mg/kg BIDx1 PO, 8 h): 1.74 fold
p21 mRNA, Fold Change over Vehicle Control ([3]; 75 mg/kg BIDx1 PO, 8 h): 5.43 fold
MDM2 mRNA, Fold Change over Vehicle Control ([3]; 75 mg/kg BIDx1 PO, 24 h): 2.44 fold
MIC-1 mRNA, Fold Change over Vehicle Control ([3]; 75 mg/kg BIDx1 PO, 24 h): 1.14 fold
p21 mRNA, Fold Change over Vehicle Control ([3]; 75 mg/kg BIDx1 PO, 24 h): 4.04 fold
MDM2 mRNA, Fold Change over Vehicle Control ([3]; 75 mg/kg BIDx1 PO, 48 h): 1.12 fold
MIC-1 mRNA, Fold Change over Vehicle Control ([3]; 75 mg/kg BIDx1 PO, 48 h): 0.85 fold
p21 mRNA, Fold Change over Vehicle Control ([3]; 75 mg/kg BIDx1 PO, 48 h): 1.43 fold
MDM2 mRNA, Fold Change over Vehicle Control ([3]; 75 mg/kg BIDx1 PO, 72 h): 1.08 fold
MIC-1 mRNA, Fold Change over Vehicle Control ([3]; 75 mg/kg BIDx1 PO, 72 h): 0.65 fold
p21 mRNA, Fold Change over Vehicle Control ([3]; 75 mg/kg BIDx1 PO, 72 h): 1.18 fold
MDM2 mRNA, Fold Change over Vehicle Control ([3]; 75 mg/kg BIDx1 PO, 98 h): 1.11 fold
MIC-1 mRNA, Fold Change over Vehicle Control ([3]; 75 mg/kg BIDx1 PO, 98 h): 1.05 fold
p21 mRNA, Fold Change over Vehicle Control ([3]; 75 mg/kg BIDx1 PO): 0.99 fold
MDM2 mRNA, Fold Change over Vehicle Control ([3]; 75 mg/kg BIDx1 PO, […]): 0.85 fold
MIC-1 mRNA, Fold Change over Vehicle Control ([3]; 75 mg/kg BIDx1 PO, […]): 0.88 fold
p21 mRNA, Fold Change over Vehicle Control ([3]; 75 mg/kg BIDx1 PO, […]): 0.98 fold
MDM2 mRNA increase ([3]; 75 mg/kg BID×1, 8 h): 6.2 fold
p21 mRNA increase ([3]; 75 mg/kg BID×1, 8 h): 5.4 fold
MDM2 mRNA increase ([3]; 75 mg/kg BID×1, 24 h): 2.4 fold
p21 mRNA increase ([3]; 75 mg/kg BID×1, 24 h): 4.0 fold
MDM2 mRNA, Fold Change over Vehicle Control ([3]; 150 mg/kg BIDx1 PO, 8 h): 8.70 fold
MIC-1 mRNA, Fold Change over Vehicle Control ([3]; 150 mg/kg BIDx1 PO, 8 h): 3.07 fold
p21 mRNA, Fold Change over Vehicle Control ([3]; 150 mg/kg BIDx1 PO, 8 h): 6.73 fold
MDM2 mRNA, Fold Change over Vehicle Control ([3]; 150 mg/kg BIDx1 PO, 24 h): 6.88 fold
MIC-1 mRNA, Fold Change over Vehicle Control ([3]; 150 mg/kg BIDx1 PO, 24 h): 2.29 fold
p21 mRNA, Fold Change over Vehicle Control ([3]; 150 mg/kg BIDx1 PO, 24 h): 9.61 fold
MDM2 mRNA, Fold Change over Vehicle Control ([3]; 150 mg/kg BIDx1 PO, 48 h): 1.43 fold
MIC-1 mRNA, Fold Change over Vehicle Control ([3]; 150 mg/kg BIDx1 PO, 48 h): 1.14 fold
p21 mRNA, Fold Change over Vehicle Control ([3]; 150 mg/kg BIDx1 PO, 48 h): 1.87 fold
MDM2 mRNA, Fold Change over Vehicle Control ([3]; 150 mg/kg BIDx1 PO, 72 h): 1.33 fold
MIC-1 mRNA, Fold Change over Vehicle Control ([3]; 150 mg/kg BIDx1 PO, 72 h): 0.93 fold
p21 mRNA, Fold Change over Vehicle Control ([3]; 150 mg/kg BIDx1 PO, 72 h): 1.33 fold
MDM2 mRNA, Fold Change over Vehicle Control ([3]; 150 mg/kg BIDx1 PO, 98 h): 1.12 fold
MIC-1 mRNA, Fold Change over Vehicle Control ([3]; 150 mg/kg BIDx1 PO, 98 h): 0.53 fold
p21 mRNA, Fold Change over Vehicle Control ([3]; 150 mg/kg BIDx1 PO): 1.01 fold
MDM2 mRNA, Fold Change over Vehicle Control ([3]; 150 mg/kg BIDx1 PO, […]): 1.16 fold
MIC-1 mRNA, Fold Change over Vehicle Control ([3]; 150 mg/kg BIDx1 PO, […]): 1.00 fold
p21 mRNA, Fold Change over Vehicle Control ([3]; 150 mg/kg BIDx1 PO, […]): 0.85 fold
MDM2 mRNA increase ([3]; 150 mg/kg BID×1, 8 h): 8.7 fold
MIC-1 mRNA increase ([3]; 150 mg/kg BID×1, 8 h): 3.07 fold
p21 mRNA increase ([3]; 150 mg/kg BID×1, 8 h): 6.7 fold
MDM2 mRNA increase ([3]; 150 mg/kg BID×1, 24 h): 6.9 fold
MIC-1 mRNA increase ([3]; 150 mg/kg BID×1, 24 h): 2.29 fold
p21 mRNA increase ([3]; 150 mg/kg BID×1, 24 h): 9.6 fold
